Each structure is given as a SMILES string. ± gives the expanded uncertainty stated by the source.

1 compound from the NIST ThermoML archive (doi:10.1016/j.tca.2019.178431) can be followed below.

For series [1] the following is noted: Crystal; DTA.
The nature of series [2]: Molar enthalpy of transition or fusion. The settings on record: Crystal; DSC.

`Clc1ccccc1C(c1ccccc1)(c1ccccc1)n1ccnc1` [1-((2-chlorophenyl)diphenylmethyl)-1H-imidazole]: the Normal melting temperature in series [1] worked out at 143.00 ± 0.4 °C. Also, the “Molar enthalpy of transition or fusion” value in series [2] was 8.36 ± 0.203 kcal/mol.
